Results on 10 molecules are retold here after patent US20260193264A1, “BENZOYPARAZINE PYRAZINES AND THEIR USES” (FOGHORN THERAPEUTICS INC., priority 2022, published 2026).

Experiment [1] concerns the target T1, HiBiT-BRM fusion protein in stable HeLa cell line (Homo sapiens, UniProt P51531).
T1 construct: expressed in transfected cells
The experiment can be described thus: HiBiT-BRM cell-based degradation assay (Nano-Glo HiBiT Lytic Detection, 24 h). The settings on record: HeLa HiBiT-BRM cells; for DC50: read-out: BRM HiBit Degradation IC50; for BRM HiBit Degradation Maximum (%): top dose 30 μM. Details: DC50: scale not given here. As for the experimental part: (§1) Procedure: A stable HeLa cell line expressing HiBiT-BRM was generated. On day 0, 5000 cells were seeded in 40 μL of media into each well of 384-well cell culture plates. On day 1, cells were treated with 120 nL DMSO or 120 nL of 3-fold serially DMSO-diluted compounds (10 points in duplicate with 30 μM as final top dose). Subsequently plates were incubated for 24 h in a standard tissue culture incubator and equilibrated at room temperature for 15 minutes. Nano-Glo HiBiT Lytic Detection System (Promega N3050) reagent was freshly prepared and 20 ul was added to each well. Upon addition of this LgBit-containing reagent, the HiBiT and LgBiT proteins associate to form the luminescent NanoBiT luciferase. The plates were shaken for 10 minutes at room temperature and the bioluminescence read using an EnVision plate reader (PerkinElmer).
The degradation % was calculated using the following formula: % degradation=100%−100%×(Lumsample−LumLC)/(LumHC−LumLC). DMSO treated cells are employed as High Control (HC) and 2 μM of a known BRM/BRG1 degrader standard treated cells are employed as Low Control (LC).
Background: The HiBiT peptide binds its large partner to form an active luciferase.

The target in experiment [2] is T2, HiBit-BRG1 fusion protein in stable HeLa cell line expressing HiBit-BRG1 and LgBit (Homo sapiens, UniProt P51532).
T2 construct: expressed in transfected cells
T2 sequence (P51532 whole entry, the tested form may be a part): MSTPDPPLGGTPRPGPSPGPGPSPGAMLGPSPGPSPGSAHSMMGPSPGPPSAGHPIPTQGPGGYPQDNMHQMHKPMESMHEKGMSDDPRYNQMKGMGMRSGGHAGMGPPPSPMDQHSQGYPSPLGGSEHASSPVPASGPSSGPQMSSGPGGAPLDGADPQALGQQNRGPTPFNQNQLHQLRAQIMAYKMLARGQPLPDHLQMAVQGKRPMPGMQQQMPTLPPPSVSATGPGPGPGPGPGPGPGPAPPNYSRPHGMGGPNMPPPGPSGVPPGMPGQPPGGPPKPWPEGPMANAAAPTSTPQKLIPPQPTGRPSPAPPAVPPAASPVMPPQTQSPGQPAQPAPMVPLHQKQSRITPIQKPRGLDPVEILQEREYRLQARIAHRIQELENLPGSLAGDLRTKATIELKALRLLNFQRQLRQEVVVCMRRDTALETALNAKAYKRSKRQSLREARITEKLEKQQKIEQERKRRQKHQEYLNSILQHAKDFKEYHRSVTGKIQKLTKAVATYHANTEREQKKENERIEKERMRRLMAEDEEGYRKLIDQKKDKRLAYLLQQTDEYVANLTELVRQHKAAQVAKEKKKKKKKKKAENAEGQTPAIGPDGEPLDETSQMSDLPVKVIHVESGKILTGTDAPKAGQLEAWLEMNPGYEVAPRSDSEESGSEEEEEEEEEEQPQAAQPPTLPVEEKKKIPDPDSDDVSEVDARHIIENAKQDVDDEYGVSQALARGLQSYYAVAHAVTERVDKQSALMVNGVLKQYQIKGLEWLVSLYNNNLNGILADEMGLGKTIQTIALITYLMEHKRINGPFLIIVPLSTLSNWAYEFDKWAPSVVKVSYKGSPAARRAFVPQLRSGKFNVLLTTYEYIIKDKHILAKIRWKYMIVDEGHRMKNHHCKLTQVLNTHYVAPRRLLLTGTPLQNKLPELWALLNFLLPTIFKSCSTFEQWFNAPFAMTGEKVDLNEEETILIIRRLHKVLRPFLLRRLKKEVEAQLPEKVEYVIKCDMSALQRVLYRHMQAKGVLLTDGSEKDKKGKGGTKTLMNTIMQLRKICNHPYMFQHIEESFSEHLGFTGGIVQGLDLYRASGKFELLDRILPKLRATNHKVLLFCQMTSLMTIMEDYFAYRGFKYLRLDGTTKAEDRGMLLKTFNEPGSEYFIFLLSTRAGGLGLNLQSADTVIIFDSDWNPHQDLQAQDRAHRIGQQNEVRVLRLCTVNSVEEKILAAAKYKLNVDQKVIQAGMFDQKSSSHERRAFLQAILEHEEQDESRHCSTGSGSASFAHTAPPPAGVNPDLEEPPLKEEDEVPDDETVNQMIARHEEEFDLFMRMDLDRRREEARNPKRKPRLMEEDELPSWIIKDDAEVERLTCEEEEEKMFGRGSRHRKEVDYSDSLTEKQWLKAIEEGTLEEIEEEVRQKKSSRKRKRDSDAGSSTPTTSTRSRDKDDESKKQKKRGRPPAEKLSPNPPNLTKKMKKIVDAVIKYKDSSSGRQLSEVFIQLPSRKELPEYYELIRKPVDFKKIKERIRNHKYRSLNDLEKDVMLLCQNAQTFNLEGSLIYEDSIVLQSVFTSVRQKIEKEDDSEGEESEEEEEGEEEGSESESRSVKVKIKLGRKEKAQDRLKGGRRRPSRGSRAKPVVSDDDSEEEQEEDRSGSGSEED
The experiment can be described thus: HiBiT-BRG1 cell-based degradation assay (Nano-Glo HiBiT, 24 h). Conditions: HeLa HiBit-BRG1/LgBit cells; for DC50: read-out: BRMG1 HiBit Degradation IC50; for Dmax: top dose 30 μM, read-out: BRG1 HiBit Degradation Maximum (%). As for the experimental part: as §1, with “On day 1, cells were treated with 120 nL DMSO or 120 nL of 3-fold serially DMSO-diluted compounds (10 points in duplicate with 30 μM as final top dose).” left out, “(PerkinElmer). For measurement of BRG1 degradation, a stable HeLa cell line expressing HiBit-BRG1 and LgBit was generated. The same protocol as above was then followed. The degradation % was calculated using the following formula: % degradation=100%−100%×(Lumsample−LumLC)/(LumHC−LumLC). DMSO treated cells are employed as High Control (HC) and 2 μM of a known BRM/BRG1 degrader standard treated cells are employed as Low Control (LC).” for “(PerkinElmer).”

Structures are written as SMILES.

T1 sequence (P51531 whole entry, the tested form may be a part): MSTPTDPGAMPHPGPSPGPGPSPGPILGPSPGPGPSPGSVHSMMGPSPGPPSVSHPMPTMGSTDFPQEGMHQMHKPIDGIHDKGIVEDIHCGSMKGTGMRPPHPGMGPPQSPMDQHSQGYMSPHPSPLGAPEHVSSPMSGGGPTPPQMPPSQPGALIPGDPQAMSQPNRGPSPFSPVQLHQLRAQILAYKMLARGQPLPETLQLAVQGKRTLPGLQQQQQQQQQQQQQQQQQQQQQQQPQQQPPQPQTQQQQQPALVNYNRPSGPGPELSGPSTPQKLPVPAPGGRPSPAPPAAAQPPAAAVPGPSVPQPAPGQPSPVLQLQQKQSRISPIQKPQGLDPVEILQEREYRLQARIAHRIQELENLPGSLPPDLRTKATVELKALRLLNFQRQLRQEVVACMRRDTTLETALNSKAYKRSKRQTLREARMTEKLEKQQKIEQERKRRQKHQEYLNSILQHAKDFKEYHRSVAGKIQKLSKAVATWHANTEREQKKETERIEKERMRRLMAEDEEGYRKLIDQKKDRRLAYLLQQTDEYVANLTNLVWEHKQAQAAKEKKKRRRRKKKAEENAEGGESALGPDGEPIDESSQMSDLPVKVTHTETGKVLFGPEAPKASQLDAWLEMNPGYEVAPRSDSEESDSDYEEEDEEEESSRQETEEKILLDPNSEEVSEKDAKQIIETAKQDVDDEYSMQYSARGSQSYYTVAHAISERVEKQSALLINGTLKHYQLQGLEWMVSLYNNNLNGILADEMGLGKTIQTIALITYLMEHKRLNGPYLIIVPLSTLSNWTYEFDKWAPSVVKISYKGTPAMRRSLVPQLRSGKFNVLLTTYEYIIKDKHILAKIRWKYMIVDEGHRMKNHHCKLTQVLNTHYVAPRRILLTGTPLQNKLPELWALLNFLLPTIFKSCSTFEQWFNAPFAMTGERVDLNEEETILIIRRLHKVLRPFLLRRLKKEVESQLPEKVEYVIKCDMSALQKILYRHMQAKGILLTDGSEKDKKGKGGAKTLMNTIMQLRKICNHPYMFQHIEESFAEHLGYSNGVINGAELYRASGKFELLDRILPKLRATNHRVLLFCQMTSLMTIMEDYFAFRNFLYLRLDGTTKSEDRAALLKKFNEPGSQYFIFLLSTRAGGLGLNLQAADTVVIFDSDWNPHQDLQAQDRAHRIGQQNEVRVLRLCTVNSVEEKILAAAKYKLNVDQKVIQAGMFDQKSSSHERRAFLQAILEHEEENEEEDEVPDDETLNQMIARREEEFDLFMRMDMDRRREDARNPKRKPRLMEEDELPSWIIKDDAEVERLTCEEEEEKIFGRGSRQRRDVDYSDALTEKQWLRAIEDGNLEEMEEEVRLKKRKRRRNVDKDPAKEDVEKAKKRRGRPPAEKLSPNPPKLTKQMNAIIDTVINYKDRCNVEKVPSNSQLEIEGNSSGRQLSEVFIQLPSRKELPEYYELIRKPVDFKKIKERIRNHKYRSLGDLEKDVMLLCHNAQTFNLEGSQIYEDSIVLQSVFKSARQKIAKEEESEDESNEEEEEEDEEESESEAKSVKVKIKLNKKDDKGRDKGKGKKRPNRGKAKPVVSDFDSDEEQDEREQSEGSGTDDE

Regarding `C#Cc1ccc(CNC(=O)[C@@H]2C[C@@H](O)CN2C(=O)[C@H](C(C)C)n2cc(N3CC4(CN(c5ccc6cc(-c7ccccc7O)nnc6c5)C4)C3)nn2)c(OCCCOC)c1` [Compound 242, (2S,4R)-N-(4-ethynyl-2-(3-methoxypropoxy)benzyl)-4-hydroxy-1-((S)-2-(4-(6-(3-(2-hydroxyphenyl)cinnolin-7-yl)-2,6-diazaspiro[3.3]heptan-2-yl)-1H-1,2,3-triazol-1-yl)-3-methylbutanoyl)pyrrolidine-2-carboxamide], in experiment [1], the DC50 was less than 10 nM and the “BRM HiBit Degradation Maximum (%)” value is “A (“A” indicates maximum degradation ≥75%)”. In experiment [2], the DC50 was less than 10 nM and the Dmax was greater than 50%.
`Cc1ncsc1-c1ccc([C@H](C)NC(=O)[C@@H]2C[C@@H](O)CN2C(=O)[C@@H](c2cc(N3CC4=C(CN(c5ccc6nnc(-c7ccccc7O)cc6c5)C4)C3)no2)C(C)C)cc1` [Compound 229, (2S,4R)-4-hydroxy-1-((R)-2-(3-(5-(3-(2-hydroxyphenyl)cinnolin-6-yl)-3,4,5,6-tetrahydropyrrolo[3,4-c]pyrrol-2(1H)-yl)isoxazol-5-yl)-3-methylbutanoyl)-N-((S)-1-(4-(4-methylthiazol-5-yl)phenyl)ethyl)pyrrolidine-2-carboxamide]: in experiment [1], the DC50 was less than 10 nM and the “BRM HiBit Degradation Maximum (%)” value is listed as “A (“A” indicates maximum degradation ≥75%)”. In experiment [2], the DC50 was less than 10 nM and the Dmax was greater than 75%.
In the case of `CC(C)[C@@H](C(=O)N1C[C@H](O)C[C@H]1C(=O)N[C@@H](C)c1ccccc1)c1cc(-c2ccc3nnc(-c4ccccc4O)cc3c2)no1` [Compound 133, (2S,4R)-4-hydroxy-1-((R)-2-(3-(3-(2-hydroxyphenyl)cinnolin-6-yl)isoxazol-5-yl)-3-methylbutanoyl)-N-((S)-1-phenylethyl)pyrrolidine-2-carboxamide], in experiment [1], the DC50 is less than 10 nM and the “BRM HiBit Degradation Maximum (%)” value is on record as “A (“A” indicates maximum degradation ≥75%)”. Besides, in experiment [2], the DC50 is greater than 10 nM and the Dmax is greater than 75%.
Consider `CC(C)C(C(=O)N1C[C@H](O)C[C@H]1C(=O)N[C@@H](C)c1ccccn1)c1cc(N2CC3(CN(c4ccc5cc(-c6ccccc6O)nnc5c4)C3)C2)no1` (stereo partly drawn) [Compound 120, (2S,4R)-4-hydroxy-1-(2-(3-(6-(3-(2-hydroxyphenyl)cinnolin-7-yl)-2,6-diazaspiro[3.3]heptan-2-yl)isoxazol-5-yl)-3-methylbutanoyl)-N-((S)-1-(pyridin-2-yl)ethyl)pyrrolidine-2-carboxamide], for which, in experiment [1], the DC50 is greater than 10 nM and the “BRM HiBit Degradation Maximum (%)” value is reported as “A (“A” indicates maximum degradation ≥75%)”. Further, the Dmax in experiment [2] is less than 50%.
Consider `Cc1ncsc1-c1ccc([C@H](C)NC(=O)[C@@H]2C[C@@H](O)CN2C(=O)[C@@H](c2cc(N3C[C@@H]4[C@H](C3)[C@H]4c3ccc4nnc(-c5ccccc5O)cc4c3)no2)C(C)C)cc1` [Compound 86, (2S,4R)-4-hydroxy-1-((R)-2-(3-((1R,5S,6S)-6-(3-(2-hydroxyphenyl)cinnolin-6-yl)-3-azabicyclo[3.1.0]hexan-3-yl)isoxazol-5-yl)-3-methylbutanoyl)-N-((S)-1-(4-(4-methylthiazol-5-yl)phenyl)ethyl)pyrrolidine-2-carboxamide], for which, in experiment [1], the DC50 was less than 10 nM and the “BRM HiBit Degradation Maximum (%)” value is on record as “A (“A” indicates maximum degradation ≥75%)”. In addition, the Dmax in experiment [2] is less than 50%.
For `Cc1ncsc1-c1ccc([C@H](C)NC(=O)[C@@H]2C[C@@H](O)CN2C(=O)[C@@H](c2cc(N3CC4(CCN4c4ccc5cc(-c6ccccc6O)nnc5c4)C3)no2)C(C)C)cc1` [Compound 100, (2S,4R)-4-hydroxy-1-((R)-2-(3-(1-(3-(2-hydroxyphenyl)cinnolin-7-yl)-1,6-diazaspiro[3.3]heptan-6-yl)isoxazol-5-yl)-3-methylbutanoyl)-N-((S)-1-(4-(4-methylthiazol-5-yl)phenyl)ethyl)pyrrolidine-2-carboxamide] the same measures were greater than 10 nM, “B (“B” indicates maximum degradation ≥50%)” and less than 50%.
Turning to `Cc1ncsc1-c1ccc([C@H](C)NC(=O)[C@@H]2C[C@@H](O)CN2C(=O)[C@@H](c2cc(-c3cnc(N4CC(c5ccc6cc(-c7ccccc7O)nnc6c5)C4)nc3)no2)C(C)C)cc1` [Compound 11, (2S,4R)-4-hydroxy-1-[(2R)-2-[3-(2-{3-[3-(2-hydroxyphenyl)cinnolin-7-yl]azetidin-1-yl}pyrimidin-5-yl)-1,2-oxazol-5-yl]-3-methylbutanoyl]-N-[(1S)-1-[4-(4-methyl-1,3-thiazol-5-yl)phenyl]ethyl]pyrrolidine-2-carboxamide], in experiment [1], the DC50 was less than 10 nM and the “BRM HiBit Degradation Maximum (%)” value was “A (“A” indicates maximum degradation ≥75%)”. The Dmax in experiment [2] is less than 50%.
For the molecule `CC(C)[C@@H](C(=O)N1C[C@H](O)C[C@H]1C(=O)N[C@@H](C)c1ccc(Br)cc1)c1cc(N2CC3(CN(c4ccc5cc(-c6ccccc6O)nnc5c4)C3)C2)no1` [Compound 109, (2S,4R)-N-((S)-1-(4-bromophenyl)ethyl)-4-hydroxy-1-((R)-2-(3-(6-(3-(2-hydroxyphenyl)cinnolin-7-yl)-2,6-diazaspiro[3.3]heptan-2-yl)isoxazol-5-yl)-3-methylbutanoyl)pyrrolidine-2-carboxamide], in experiment [1], the DC50 is less than 10 nM and the “BRM HiBit Degradation Maximum (%)” value is on record as “A (“A” indicates maximum degradation ≥75%)”. The Dmax in experiment [2] was less than 50%.
Regarding `Cc1ncsc1-c1ccc([C@H](C)NC(=O)[C@@H]2C[C@@H](O)CN2C(=O)C(c2cc(-c3cnc(N4CCC5(CC4)CC(c4ccc6cc(-c7ccccc7O)nnc6c4)C5)nc3)no2)C(C)C)cc1` (mixture of isomers) [Compound 65, (2S,4R)-4-hydroxy-1-(2-(3-(2-(2-(3-(2-hydroxyphenyl)cinnolin-7-yl)-7-azaspiro[3.5]nonan-7-yl)pyrimidin-5-yl)isoxazol-5-yl)-3-methylbutanoyl)-N-((S)-1-(4-(4-methylthiazol-5-yl)phenyl)ethyl)pyrrolidine-2-carboxamide], in experiment [1], the DC50 is less than 10 nM and the “BRM HiBit Degradation Maximum (%)” value is on record as “A (“A” indicates maximum degradation ≥75%)”. In experiment [2], the DC50 was greater than 10 nM and the Dmax is greater than 75%.
In the case of `Cc1ncsc1-c1ccc([C@H](C)NC(=O)[C@@H]2C[C@@H](O)CN2C(=O)[C@@H](c2cc(N3CC4(C3)CN(c3cc5nnc(-c6cccc(F)c6O)cc5cc3C3CC3)C4)no2)C(C)C)cc1` [Compound 180, (2S,4R)-1-((R)-2-(3-(6-(6-cyclopropyl-3-(3-fluoro-2-hydroxyphenyl)cinnolin-7-yl)-2,6-diazaspiro[3.3]heptan-2-yl)isoxazol-5-yl)-3-methylbutanoyl)-4-hydroxy-N-((S)-1-(4-(4-methylthiazol-5-yl)phenyl)ethyl)pyrrolidine-2-carboxamide], in experiment [1], the DC50 was less than 10 nM and the “BRM HiBit Degradation Maximum (%)” value was “A (“A” indicates maximum degradation ≥75%)”. The Dmax in experiment [2] is less than 50%.
